# According to patent publication US20240238199A1, “STABLE LIQUID PHARMACEUTICAL COMPOSITIONS HAVING HIGH DRUG LOADINGS OF MEDIUM CHAIN TRIGLYCERIDES AND METHODS RELATED THERETO” (CERECIN INC., priority 2021, published 2024):
# Tests used:
# [1] = Emulsion physical stability (visual / overall assessment); assay type: physicochemical; conditions: at pH7
# From the text: As described herein, the pharmaceutical compositions of the disclosure may form a stable liquid emulsion at ambient conditions. An emulsion refers to a composition which, when diluted with water or other aqueous medium and gently mixed, yields a stable oil/water emulsion with a mean particle size of less than about 1 μm, but greater than about 100 nm, (i.e., 0.1-1 μm) and which is generally polydisperse. Such an emulsion is stable, meaning there is no visibly detectable phase separation and that there is no visibly detectable crystallization.
# Equal mix of Phospholipon 90 G, Kolliphor RH40 and Capmul PG-8 was also very stable. Particle size evolution of Phospholipon 90G, Kolliphor RH40, Capmul PG-8 emulsions prepared via Ultra Turrax emulsification are shown in FIG. 4, and particle size evolution of 10 Phospholipon 90G, Kolliphor RH40, Capmul PG-8 emulsions: prepared via Silverson & High Pressure Homogeniser emulsification are shown in FIG. 5. Visual appearance of Phospholipon 90G, Kolliphor RH40, Capmul PG-8 emulsions under a 1 month stability study are shown in FIG. 6.
# [2] = Gamma irradiation: physiochemical testing pre & post treatment; assay type: physicochemical
# From the text: Gamma irradiation is a commonly accepted method of sterilizing componentry and reducing bio load in natural materials. Exemplary formulations were irradiated at various dosages and then assessed for the impact of irradiation on product performance.
Appearance: Complies/fails ([2]; gamma irradiation 10 kGy),Assay: Complies/fails ([2]; gamma irradiation 10 kGy),Related substances: Complies/fails ([2]; gamma irradiation 10 kGy),Related substances: result after treatment ([2]; gamma irradiation 10 kGy),Appearance: Complies/fails ([2]; gamma irradiation 15 kGy),Assay: Complies/fails ([2]; gamma irradiation 15 kGy),Related substances: Complies/fails ([2]; gamma irradiation 15 kGy),Related substances: result after treatment ([2]; gamma irradiation 15 kGy),Appearance: Complies/fails ([2]; gamma irradiation 25 kGy),Assay: Complies/fails ([2]; gamma irradiation 25 kGy),Related substances: Complies/fails ([2]; gamma irradiation 25 kGy),Related substances: result after treatment ([2]; gamma irradiation 25 kGy),Compound,effect on emulsion stability [1]
,,,,,,,,,,,,CCCCCCCC/C=C\CCCCCCCC(=O)[O-].[Na+] [Sodium oleate],slight destabilizing effect
Complies,Complies,Complies*,profile changes,Complies,Complies,Complies*,profile changes,Complies,Complies,Complies*,profile changes,CCCCCCCC(=O)OCC(COC(=O)CCCCCCC)OC(=O)CCCCCCC [Tricaprylin],
